What was measured:
Canton G6PD = target: T1, Canton G6PD (Homo sapiens, UniProt P11413, R459L); assay: Native gel electrophoresis, dimerization
T1 construct: His (pET-28a) (N, cleaved yes); made in house; host or cells: E. coli C43 (DE3)
Protocol: 200 ng of recombinant enzymes were incubated with the compound (varying in assays) for 10 minutes at room temperature. To prevent streaking and artifacts in native PAGE gel, the samples in a native state (no boiling of sample and no reducing agent in sample buffer) were electrophoresed by […]. Cross-linking assay was initiated by incubating 500 ng of recombinant enzymes in PBS with 0.1% of glutaraldehyde and different concentrations of NADP^+ (0, 10, 100, 1000 μM) or MgCl2 (0, 1, 10, 100 mM). The mixture was incubated for 10 minutes at room temperature, which was followed by the addition of 100 mM Tris (pH 8.0) at a final concentration to terminate the reaction. The samples were electrophoresed as described above.

[1] = target: 6-phosphogluconate dehydrogenase (6PGD) (Homo sapiens, UniProt P52209); assay: Selectivity: dimerization or activity of other NAD/NADP+-dependent enzymes; type: biochemical
6-phosphogluconate dehydrogenase (6PGD), sequence (P52209 whole entry): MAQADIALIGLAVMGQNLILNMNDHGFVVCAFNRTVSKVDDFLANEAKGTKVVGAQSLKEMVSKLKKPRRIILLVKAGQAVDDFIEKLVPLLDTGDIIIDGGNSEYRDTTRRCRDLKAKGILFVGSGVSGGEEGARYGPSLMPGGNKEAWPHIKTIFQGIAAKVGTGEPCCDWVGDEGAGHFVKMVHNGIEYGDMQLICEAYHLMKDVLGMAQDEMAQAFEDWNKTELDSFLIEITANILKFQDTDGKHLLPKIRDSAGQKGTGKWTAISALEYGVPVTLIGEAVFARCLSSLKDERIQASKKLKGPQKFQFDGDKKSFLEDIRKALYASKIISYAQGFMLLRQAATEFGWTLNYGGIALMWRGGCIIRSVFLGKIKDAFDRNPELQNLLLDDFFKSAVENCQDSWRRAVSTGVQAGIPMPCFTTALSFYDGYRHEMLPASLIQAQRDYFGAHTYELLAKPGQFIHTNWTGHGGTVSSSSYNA

A- (V68M, N126D) G6PD = target: T2, A- (V68M, N126D) G6PD (Homo sapiens, UniProt P11413, N126D/V68M); assay: G6PD variant enzyme activity; type: biochemical
T2 construct: His (pET-28a) (N, cleaved yes); made in house; host or cells: E. coli C43 (DE3)
T2 sequence (P11413 whole entry V68M/N126D): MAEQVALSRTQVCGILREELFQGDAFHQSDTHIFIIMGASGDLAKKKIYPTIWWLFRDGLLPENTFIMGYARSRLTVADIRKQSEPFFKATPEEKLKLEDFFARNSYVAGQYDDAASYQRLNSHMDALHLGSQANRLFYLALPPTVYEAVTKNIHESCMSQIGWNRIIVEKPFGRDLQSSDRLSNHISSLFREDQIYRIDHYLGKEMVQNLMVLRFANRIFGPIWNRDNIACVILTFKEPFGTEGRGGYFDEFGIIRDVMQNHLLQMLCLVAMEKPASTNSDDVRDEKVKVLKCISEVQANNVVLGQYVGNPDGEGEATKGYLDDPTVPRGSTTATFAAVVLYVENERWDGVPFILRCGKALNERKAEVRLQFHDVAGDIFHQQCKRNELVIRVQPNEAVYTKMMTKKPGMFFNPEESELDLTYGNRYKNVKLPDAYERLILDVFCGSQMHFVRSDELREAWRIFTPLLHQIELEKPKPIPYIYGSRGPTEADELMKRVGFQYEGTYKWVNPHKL
Protocol: (§1) Enzyme activity was measured by monitoring NADPH production, which was coupled with diaphorase converting resazurin to fluorescent resorufin (excitation at 565 nm and emission at 590 nm); fluorescent signal was thus proportional to G6PD activity. Assays were performed at 25° C. and run for 5 minutes in buffer containing 50 mM Tris (pH 7.4), 0.5 mM EDTA, 3.3 mM MgCl2, 1 U/ml diaphorase, 0.1 mM resazurin. 10 ng of recombinant enzymes or 10 μg of cell lysates was used for the assay with 10 μM NADP^+ (Sigma) as cofactor and 100 μM G6P (Sigma) as substrate. Steady-state kinetic parameters were obtained by varying concentrations of NADP^+ (0-10 μM) with a constant concentration of G6P (100 μM) and similarly for G6P (0-100 μM) with a constant concentration of NADP^+ (10 μM) with 10 ng of recombinant enzymes. Data analysis was performed using GraphPad Prism software v.6 (GraphPad Software, La Jolla, Calif. USA). Kinetic parameters were obtained by fitting the data to the Michaelis-Menten equation.

Kaiping (R463H) G6PD = target: T3, Kaiping (R463H) G6PD (Homo sapiens, UniProt P11413, R463H); assay: G6PD variant enzyme activity; type: biochemical
T3 construct: His (pET-28a) (N, cleaved yes); made in house; host or cells: E. coli C43 (DE3)
T3 sequence (P11413 whole entry R463H): as the sequence (P11413 whole entry V68M/N126D) above, with M68V, D126N, R463H counted along it
Protocol: as §1

[2] = target: T4, Mediterranean (S188F) G6PD (Homo sapiens, UniProt P11413, S188F); assay: G6PD variant enzyme activity; type: biochemical
T4 construct: His (pET-28a) (N, cleaved yes); made in house; host or cells: E. coli C43 (DE3)
T4 sequence (P11413 whole entry S188F): as the sequence (P11413 whole entry V68M/N126D) above, with M68V, D126N, S188F counted along it
Protocol: as §1

[3] = test system: G6PD in zebrafish embryo lysates; assay: G6PD activity in lysates of pooled zebrafish embryos; type: in vivo; settings: lysates of pooled AG1-treated embryos
Protocol: Embryos were dechorinated with pronase at 24 hours post fertilization (hpf) and treated with 50 μg/ml of chloroquine and/or AG1 by directly adding the compounds to the well. For ROS measurements, embryos were incubated with compounds for 2 hours, and then the ROS detecting reagent (CM-H2DCFDA) was added at a final concentration of 500 ng/ml to the well for a total treatment time of 5 hours. One embryo was placed to each well of a black, opaque 96-well plate. The florescence was analyzed with excitation/emission at 485/525 nm. After ROS assays, embryos at about 32 hpf were pooled and lysed in buffer containing 50 mM Tris (pH 7.4), 150 mM NaCl, 1 mM EDTA, 0.1% NP-40, and protease inhibitor cocktail, which was followed by three cycles of freeze and thawing in liquid nitrogen. The lysate was centrifuged at 14,000 rpm at 4° C. for 15 minutes. Total protein concentration in the supernatants (total lysate) was determined by Bradford method. 50 μg of total lysate was loaded onto 10% SDS-PAGE gels and the protein level was examined by Western blot using anti-G6PD antibody (Abcam (G6PD: AB87230)). 10 μg of total lysate was used for enzymatic assay. 50 μg of the lysate was used to measure NADPH levels using a NADPH quantification kit (Biovision), according to the manufacturer's instructions.

g6pd crispant embryos = assay: g6pd crispant zebrafish embryos; type: in vivo; settings: 1 μM AG1
Protocol: sgRNA against Exon 10 of g6pd was designed using CHOPCHOP and in vitro transcribed according to standard protocols. The gene-specific oligo sequence was: 5′-[…] CAAG-3′ (SEQ ID NO: //). sgRNA and Cas9 protein (NEB) were mixed and microinjected into one-cell-stage embryos. For each injected clutch, 10 individual embryos were isolated at 24 hpf for sequencing to confirm introduction of a CRISPR-mediated indel in exon 10.
Embryos were dechorinated with pronase at 24 hours post fertilization (hpf) and treated with 50 μg/ml of chloroquine and/or AG1 by directly adding the compounds to the well. For ROS measurements, embryos were incubated with compounds for 2 hours, and then the ROS detecting reagent (CM-H2DCFDA) was added at a final concentration of 500 ng/ml to the well for a total treatment time of 5 hours. One embryo was placed to each well of a black, opaque 96-well plate. The florescence was analyzed with excitation/emission at 485/525 nm. […] Total protein concentration in the supernatants (total lysate) was determined by Bradford method. […] 50 μg of the lysate was used to measure NADPH levels using a NADPH quantification kit (Biovision), according to the manufacturer's instructions.

human erythrocytes [4] = assay: ROS levels in erythrocytes under oxidative stressors; type: cell-based; settings: drug-induced oxidative stress
Protocol: (§2) De-identified blood samples were obtained from the Stanford Blood Center. Erythrocytes were collected by filtering the samples through a cellulose slurry to remove platelets and leukocytes and then washed with saline. G6PD activity was measured (Beutler E. Red cell metabolism: A manual of biochemical methods (3rd edition). Grune & Stratton (1984)). […] A 5% erythrocyte suspension was pre-incubated with 1-5 μM AG1 at 4° C. overnight, which was followed by treatment with (or without) either 1 mM chloroquine (CQ) or 1 mM diamide for 3-4 hours at 37° C. (for hemolysis assay with chloroquine, the mixture was incubated under light). Then centrifugation at 1,000 rpm for 5 minutes was followed. Hemoglobin release in the supernatant was monitored by measuring absorbance at 540 nm. […] After wash, the samples were lysed with 0.1% Triton X-100 (final concentration), and the florescence was analyzed with excitation/emission at 485/525 nm. GSH measurement was determined using a Cayman glutathione assay kit (Cayman Chemicals, 703002). […] The absorbance was read at 412 nm. For storage assay, a 5% erythrocyte suspension was stored at 4° C. with and without 1 μM AG1, and hemolysis and G6PD activity were monitored every week for 28 days to examine whether AG1 improves preservation of erythrocytes over time. Protein leakage was also examined by measuring the absorbance of the supernatant of samples at 280 nm. […]

human erythrocytes [5] = assay: Erythrocyte refrigerated storage assay, hemolysis; type: cell-based; settings: 672 h, read-out: reduction of hemolysis
Protocol: as §2

T1 sequence (P11413 whole entry R459L): as the sequence (P11413 whole entry V68M/N126D) above, with M68V, D126N, R459L counted along it

SCCNCCc1c[nH]c2ccccc12 [AG1, 2-[2-(1H-indol-3-yl)ethylamino]ethanethiol]
formation of active dimers (Canton G6PD): promoted formation of active dimers
effect on dimerization or activity [1]: no effect
activation of variant (A- (V68M, N126D) G6PD): up to 2 fold
activation of variant (Kaiping (R463H) G6PD): up to 2 fold
activation of variant [2]: up to 2 fold
G6PD activity [3]: slight increase
ROS, G6PD activity, NADPH level, pericardial edema (g6pd crispant embryos): did not significantly affect
ROS levels (human erythrocytes [4]): reduced
reduction of hemolysis at 1 µM (human erythrocytes [5]): 12%
